Assay results published in US12077503B2, “Substituted cyclic amides and their use as herbicides” (FMC CORPORATION, priority 2015, dated 2024).

What was measured:
Type in all cases: in vivo
[1] = tested on: morningglory (Ipomoea spp.); experiment: Test A preemergence; settings: Preemergence, 1000 g ai/ha; 0 is no effect, 100 is complete control
In short: (§1)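 Preemergence directed soil spray on seeded pots, or postemergence application to plants 2–10 cm, one- to two-leaf. Solvent mixture non-phytotoxic, with surfactant. Scored ~10 d later, visually, 0–100 vs untreated.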

[2] = tested on: velvetleaf (Abutilon theophrasti); experiment: Test A preemergence; settings: Preemergence, 1000 g ai/ha; 0 is no effect, 100 is complete control
In short: as §1

[3] = tested on: wheat (Triticum aestivum); experiment: Test A preemergence; settings: Preemergence, 1000 g ai/ha; 0 is no effect, 100 is complete control
In short: as §1

[4] = tested on: barnyardgrass (Echinochloa crus-galli); experiment: Test A preemergence; settings: for Barnyardgrass plant response rating (0 to 100 scale): 1000 g ai/ha, 0 is no effect, 100 is complete control
In short: as §1

[5] = tested on: crabgrass, large (Digitaria sanguinalis); experiment: Test A preemergence; settings: Preemergence, 1000 g ai/ha; 0 is no effect, 100 is complete control
In short: as §1

[6] = tested on: pigweed (Amaranthus retroflexus); experiment: Test A preemergence; settings: for Pigweed plant response rating (0 to 100 scale): 1000 g ai/ha, 0 is no effect, 100 is complete control
corn (Zea mays) [7] = experiment: Test A preemergence; settings: Preemergence, 1000 g ai/ha; 0 is no effect, 100 is complete control
In short: as §1

[8] = tested on: giant foxtail (Setaria faberii); experiment: Test A preemergence; settings: for Foxtail, Giant plant response rating (0 to 100 scale): 1000 g ai/ha, 0 is no effect, 100 is complete control
In short: as §1

[9] = tested on: morningglory (Ipomoea spp.); experiment: Test A postemergence; settings: 1000 g ai/ha, postemergence; 0 to 100 scale, 0 no effect, 100 complete control
In short: as §1

[10] = tested on: velvetleaf (Abutilon theophrasti); experiment: Test A postemergence; settings: 1000 g ai/ha, postemergence; 0 to 100 scale, 0 no effect, 100 complete control
In short: as §1

[11] = tested on: wheat (Triticum aestivum); experiment: Test A postemergence; settings: postemergence
In short: as §1

[12] = tested on: barnyardgrass (Echinochloa crus-galli); experiment: Test A postemergence
In short: as §1

[13] = tested on: crabgrass, large (Digitaria sanguinalis); experiment: Test A postemergence; settings: 1000 g ai/ha, postemergence; 0 to 100 scale, 0 no effect, 100 complete control
In short: as §1

[14] = tested on: pigweed (Amaranthus retroflexus); experiment: Test A postemergence; settings: postemergence
In short: as §1

corn (Zea mays) [15] = experiment: Test A postemergence
In short: as §1

[16] = tested on: giant foxtail (Setaria faberii); experiment: Test A postemergence; settings: postemergence
In short: as §1

[17] = tested on: ducksalad (Heteranthera limosa); experiment: Test B flooded paddy test; settings: Flood, 250 g ai/ha; 0 to 100 scale where 0 is no effect and 100 is complete control; 13 to 15 d
In short: (§2)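 Flooding to 3 cm over soil accompanied treatment, which consisted of adding compound to the standing water around 2-leaf plants; depth was then maintained. Visual assessment versus controls followed at 13 to 15 d (scale 0–100, 0 meaning no effect).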

[18] = tested on: barnyardgrass (Echinochloa crus-galli); experiment: Test B flooded paddy test; settings: Flood, 250 g ai/ha; 0 to 100 scale where 0 is no effect and 100 is complete control; 13 to 15 d
In short: as §2

[19] = tested on: sedge, umbrella (small-flower umbrella sedge, Cyperus difformis); experiment: Test B flooded paddy test; settings: Flood, 250 g ai/ha; 0 to 100 scale where 0 is no effect and 100 is complete control; 13 to 15 d
In short: as §2

rice (Oryra sativa) = experiment: Test B flooded paddy test; settings: Flood, 250 g ai/ha; 0 to 100 scale where 0 is no effect and 100 is complete control; 13 to 15 d
In short: as §2

[20] = tested on: ragweed (common ragweed, Ambrosia elatior); experiment: Test A preemergence
In short: as §1

[21] = tested on: ryegrass, Italian (Italian ryegrass, Lolium multiflorum); experiment: Test A preemergence
In short: as §1

Kochia (Kochia scoparia) [22] = experiment: Test A preemergence
In short: as §1

[23] = tested on: Galium (catchweed bedstraw, Galium aparine); experiment: Test A postemergence; settings: postemergence, 0 to 100 scale (0 no effect, 100 complete control)
In short: as §1

[24] = tested on: ragweed (common ragweed, Ambrosia elatior); experiment: Test A postemergence; settings: postemergence, 0 to 100 scale (0 no effect, 100 complete control)
In short: as §1

[25] = tested on: ryegrass, Italian (Italian ryegrass, Lolium multiflorum); experiment: Test A postemergence; settings: postemergence, 0 to 100 scale (0 no effect, 100 complete control)
In short: as §1

Kochia (Kochia scoparia) [26] = experiment: Test A postemergence; settings: postemergence, 0 to 100 scale (0 no effect, 100 complete control)
In short: as §1

[27] = tested on: blackgrass (Alopecurus myosuroides); experiment: Test A postemergence
In short: as §1

[28] = tested on: ducksalad (Heteranthera limosa); experiment: Test C flooded paddy test; settings: Flood, 0 is no effect, 100 is complete control
In short: (§3)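 Test compounds were dosed straight into the flood water of pots holding 2-leaf-stage plants, with water kept 3 cm above the soil. Greenhouse plants were scored visually against controls after 13 to 15 d, from 0 (no effect) to 100 (complete control).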

rice (Oryza sativa) = experiment: Test C flooded paddy test; settings: Flood, 0 is no effect, 100 is complete control
In short: as §3

[29] = tested on: barnyardgrass (Echinochloa crus-galli); experiment: Test C flooded paddy test; settings: Flood, 0 is no effect, 100 is complete control
In short: as §3

[30] = tested on: sedge, umbrella (small-flower umbrella sedge, Cyperus difformis); experiment: Test C flooded paddy test; settings: Flood, 0 is no effect, 100 is complete control
In short: as §3

[31] = 1000 g ai/ha, 0 to 100 scale, 0 no effect, 100 complete control
[32] = 1000 g ai/ha, postemergence, 0 to 100 scale, 0 no effect, 100 complete control
[33] = 125 g ai/ha, Preemergence, visual injury after approximately 10 d, 0 to 100 scale where 0 is no effect and 100 is complete control
[34] = 500 g ai/ha, preemergence, 0 to 100 scale, 0 = no effect, 100 = complete control
[35] = 125 g ai/ha, visual rating after approx. 10 d
[36] = 500 g ai/ha, visual injury, approx. 10 d
[37] = 125 g ai/ha, visual rating after approx. 10 d, 0 to 100 scale (0 no effect, 100 complete control)
[38] = 500 g ai/ha, visual injury, 0 to 100 scale (0 no effect, 100 complete control), approx. 10 d
[39] = 125 g ai/ha, postemergence, visual rating after approx. 10 d, 0 to 100 scale (0 no effect, 100 complete control)
[40] = Postemergence, 500 g ai/ha, 0 to 100 scale where 0 is no effect and 100 is complete control

N#CCN(C(=O)C1C(=O)NCC1c1ccc(F)c(F)c1)c1ccccc1[N+](=O)[O-] (stereo not drawn) [Compound 713]
Morningglory plant response rating (0 to 100 scale) [1]: 0
Velvetleaf plant response rating (0 to 100 scale) [2]: 0
Wheat plant response rating (0 to 100 scale) [3]: 0
Barnyardgrass plant response rating (0 to 100 scale) ([4]; Preemergence): 0
Crabgrass, Large plant response rating (0 to 100 scale) [5]: 80
Pigweed plant response rating (0 to 100 scale) ([6]; Preemergence): 0
Corn plant response rating (0 to 100 scale) (corn (Zea mays) [7]): 0
Foxtail, Giant plant response rating (0 to 100 scale) ([8]; Preemergence): 40
Plant response rating, Morningglory [9]: 0
Plant response rating, Velvetleaf [10]: 0
Plant response rating, Wheat [11, 31]: 0
Plant response rating, Barnyardgrass [12, 32]: 0
Plant response rating, Crabgrass, Large [13]: 0
Plant response rating, Pigweed [14, 31]: 0
Plant response rating, Corn (corn (Zea mays) [15]; [32]): 0
Plant response rating, Foxtail, Giant [16, 31]: 0

Nc1c(NC(=O)C2C(=O)NCC2c2ccc(F)c(F)c2)ccc(F)c1F (racemic) [Compound 358]
Morningglory plant response rating (0 to 100 scale) [1]: 0
Velvetleaf plant response rating (0 to 100 scale) [2]: 0
Wheat plant response rating (0 to 100 scale) [3]: 0
Barnyardgrass plant response rating (0 to 100 scale) ([4]; Preemergence): 0
Crabgrass, Large plant response rating (0 to 100 scale) [5]: 50
Pigweed plant response rating (0 to 100 scale) ([6]; Preemergence): 0
Corn plant response rating (0 to 100 scale) (corn (Zea mays) [7]): 0
Foxtail, Giant plant response rating (0 to 100 scale) ([8]; Preemergence): 0
Plant response rating, Morningglory [9]: 0
Plant response rating, Velvetleaf [10]: 0
Plant response rating, Wheat [11, 31]: 0
Plant response rating, Barnyardgrass [12, 32]: 0
Plant response rating, Crabgrass, Large [13]: 40
Plant response rating, Pigweed [14, 31]: 0
Plant response rating, Corn (corn (Zea mays) [15]; [32]): 0
Plant response rating, Foxtail, Giant [16, 31]: 30

CN1CC(c2cccc(F)c2)C(C(=O)Nc2ccc(F)cc2F)C1=O (stereo not drawn) [Compound 633]
Plant response rating, Ducksalad [17]: 100
Plant response rating, Barnyardgrass [18]: 90
Plant response rating, Sedge, Umbrella [19]: 0
Plant response rating, Rice (rice (Oryra sativa)): 20
Plant response rating, Ragweed [20, 33]: 0
Plant response rating, Ragweed [20, 34]: 50
Plant response rating, Ryegrass, Italian [21, 33]: 30
Plant response rating, Ryegrass, Italian [21, 34]: 60
Plant response rating, Barnyardgrass [4, 33]: 90
Plant response rating, Barnyardgrass [4, 34]: 90
Plant response rating, Pigweed [6, 33]: 0
Plant response rating, Pigweed [6, 34]: 50
Plant response rating, Foxtail, Giant [8, 33]: 90
Plant response rating, Foxtail, Giant [8, 34]: 90
Plant response rating, Kochia (Kochia (Kochia scoparia) [22]; [33]): 30
Plant response rating, Kochia (Kochia (Kochia scoparia) [22]; [34]): 50
Plant response rating, Galium [23, 35]: 0
Plant response rating, Galium [23, 36]: 50
Plant response rating, Ragweed [24, 35]: 0
Plant response rating, Ragweed [24, 36]: 0
Plant response rating, Ryegrass, Italian [25, 35]: 0
Plant response rating, Ryegrass, Italian [25, 36]: 50
Plant response rating, Wheat [11, 37]: 0
Plant response rating, Wheat [11, 38]: 40
Plant response rating, Barnyardgrass [12, 39]: 90
Plant response rating, Barnyardgrass [12, 40]: 90
Plant response rating, Pigweed [14, 37]: 0
Plant response rating, Pigweed [14, 38]: 0
Plant response rating, Corn (corn (Zea mays) [15]; [39]): 0
Plant response rating, Corn (corn (Zea mays) [15]; [40]): 60
Plant response rating, Foxtail, Giant [16, 37]: 90
Plant response rating, Foxtail, Giant [16, 38]: 90
Plant response rating, Kochia (Kochia (Kochia scoparia) [26]; [35]): 40
Plant response rating, Kochia (Kochia (Kochia scoparia) [26]; [36]): 60
Plant response rating, Blackgrass [27, 39]: 20
Plant response rating, Blackgrass [27, 40]: 50
Plant response rating (scale of 0 to 100), Ducksalad ([28]; 31 g ai/ha): 0
Plant response rating (scale of 0 to 100), Ducksalad ([28]; 62 g ai/ha): 60
Plant response rating (scale of 0 to 100), Ducksalad ([28]; 125 g ai/ha): 75
Plant response rating (scale of 0 to 100), Ducksalad ([28]; 250 g ai/ha): 100
Plant response rating (scale of 0 to 100), Rice (rice (Oryza sativa); 31 g ai/ha): 0
Plant response rating (scale of 0 to 100), Rice (rice (Oryza sativa); 62 g ai/ha): 0
Plant response rating (scale of 0 to 100), Rice (rice (Oryza sativa); 125 g ai/ha): 0
Plant response rating (scale of 0 to 100), Rice (rice (Oryza sativa); 250 g ai/ha): 10
Plant response rating (scale of 0 to 100), Barnyardgrass ([29]; 31 g ai/ha): 10
Plant response rating (scale of 0 to 100), Barnyardgrass ([29]; 62 g ai/ha): 40
Plant response rating (scale of 0 to 100), Barnyardgrass ([29]; 125 g ai/ha): 55
Plant response rating (scale of 0 to 100), Barnyardgrass ([29]; 250 g ai/ha): 70
Plant response rating (scale of 0 to 100), Sedge, Umbrella ([30]; 31 g ai/ha): 0
Plant response rating (scale of 0 to 100), Sedge, Umbrella ([30]; 62 g ai/ha): 0
Plant response rating (scale of 0 to 100), Sedge, Umbrella ([30]; 125 g ai/ha): 0
Plant response rating (scale of 0 to 100), Sedge, Umbrella ([30]; 250 g ai/ha): 0
